Five compounds from PubChem BioAssay AID1259408 (Genetic Toxicology Data Bank (GENE-TOX), 2018) can be followed below.

The source made the active and inactive calls. No rule for the calls is given here.

The subject of the series is GENE-TOX genotoxicity assays, various organisms and cells. Description: GENE-TOX mutagenicity studies. The settings on record: Evaluation Type: Evaluation A (Pre-1980); for call: Species/Cell Type: Nonhuman, Assay Type: In vivo carcinogenicity studies.
[1] abbreviates: Species/Cell Type: Salmonella typhimurium (one or more of the five standard strains: TA98, TA100, TA1535, TA1537, and TA1538), Assay Type: Histidine reverse gene mutation, Ames assay, Assay Code: SAL+.

Take `C=CN(C)N=O`: where the note is “Species/Cell Type: Drosophila melanogaster, Assay Type: Sex-linked recessive lethal gene mutation, Assay Code: SRL+”, the mutagenic call was “active; positive”. The call (Assay Code: CCG+) is “active; positive”.
With `Cc1ncc([N+](=O)[O-])n1C`, the mutagenic call under setting [1] is “active; positive”.
For `NC(=O)c1ccccc1C(N)=O`, the call (Assay Code: CCG-) was “inactive; negative”.
As to `Cc1cc(C(C)(C)C)c(O)c(C(C)(C)C)c1`, the mutagenic call reads like this: (Species/Cell Type: Allium cepa, Assay Type: Chromosome aberrations, Assay Code: ALC+) “active; positive”; (Species/Cell Type: Drosophila melanogaster, Assay Type: Aneuploidy, whole sex chromosome loss, chromosome aberrations, Assay Code: DAC+M) “active; positive”; (Species/Cell Type: Drosophila melanogaster, Assay Type: Sex-linked recessive lethal gene mutation, Assay Code: SRL-) “inactive; negative”; (Species/Cell Type: Drosophila melanogaster, Sex: Male, Assay Type: Heritable translocation test, chromosome aberrations, Assay Code: DHTT) “no conclusion”; (Species/Cell Type: Mammalian polychromatic erythrocytes, Assay Type: Micronucleus test, chromosome aberrations, Assay Code: MNTT) “no conclusion”; (Species/Cell Type: Mouse, Sex: Male, Assay Type: Specific locus test, gene mutation, Assay Code: SLT-) “inactive; negative”. Besides, the mutagenic call runs as follows: (Species/Cell Type: Mouse, Sex: Male, Assay Type: Sperm morphology, Assay Code: SPIT) “no conclusion”; (Species/Cell Type: Salmonella typhimurium (one or more of the five standard strains: TA98, TA100, TA1535, TA1537, and TA1538), Assay Type: Histidine reverse gene mutation, Ames assay, Assay Code: SAL-) “inactive; negative”.
For `Nc1cccc2cccnc12`, the mutagenic call is “no conclusion” (Species/Cell Type: Drosophila melanogaster, Assay Type: Sex-linked recessive lethal gene mutation, Assay Code: SRLT); “inactive; negative” (Species/Cell Type: Saccharomyces cerevisiae, Assay Type: Forward gene mutation, Assay Code: YEF-*, Activation: With metabolic activation); “inactive; negative” (Species/Cell Type: Saccharomyces cerevisiae, Assay Type: Mitotic recombination or gene conversion, Assay Code: YEC-*, Activation: With metabolic activation); “inactive; negative” (Species/Cell Type: Saccharomyces cerevisiae, Assay Type: Mitotic recombination or gene conversion, Assay Code: YEH-*, Activation: With metabolic activation); “active; positive” (Species/Cell Type: Saccharomyces cerevisiae, Assay Type: Reverse gene mutation, Assay Code: YER+); “active; positive” under setting [1].
